Source: patent publication US20260091011A1, “HYDROALCOHOLIC SINGLE PHASE GEL COMPOSITIONS FOR TOPICAL DELIVERY OF DICLOFENAC” (HALEON CH SARL, priority 2022, published 2026)

Assay: Cumulative skin permeation study in a 3 ml permeation cell (Example 2)
Assay type: in vitro ADME, human
Settings: 2% w/w diclofenac sodium hydroalcoholic gels
Method: In a cumulative skin permeation study in a 3 ml permeation cell, cumulative permeation through a skin sample from a human donor was studied. Five different compositions were tested in six replicates. Cumulative permeation was measured at 4 hours (hrs) and at 24 hrs after application of a dose. However, cumulative permeation at 4 hrs was below the measurement threshold in this experiment and thus is not reported for Example 2. All formulations were applied in a dose of 6 microlitres onto skin sample of a defined surface area. The following formulations were studied: […]

Substance	effect of non-ionic emulsifier on cumulative permeation of diclofenac at 24 hrs
Polysorbate 20 [Kolliphor PS 20]	permeation retarding effect
macrogol cetostearyl ether 20 [Kolliphor CS 20]	more pronounced
